In ChEMBL document CHEMBL4043100, “Antitrichomonal activity of δ opioid receptor antagonists, 7-benzylidenenaltrexone derivatives” (Bioorg Med Chem, 2017):
Values after ≈ are worked out from the molar mass of the structure shown.

Assays:
Trichomonas vaginalis = assay: Antimicrobial activity against Trichomonas vaginalis after 48 hrs by neutral red staining based invert microscopic analysis; type: functional
[1] = molecular target: Delta-type opioid receptor (Homo sapiens, UniProt P41143); assay: Displacement of [3H]DPDPE from human delta opioid receptor expressed in CHO cell membranes by microbeta scintillation counting analysis
Mu-type opioid receptor = Mu-type opioid receptor (Homo sapiens, UniProt P35372); assay: Displacement of [3H]DAMGO from human mu opioid receptor expressed in CHO cell membranes by microbeta scintillation counting analysis
[2] = molecular target: Kappa-type opioid receptor (Homo sapiens, UniProt P41145); assay: Displacement of [3H]U-69,593 from human kappa opioid receptor expressed in CHO cell membranes by microbeta scintillation counting analysis
[3] = Antimicrobial activity against Tritrichomonas mobilensis after 48 hrs by neutral red staining based invert microscopic analysis; type: functional

Chain of Mu-type opioid receptor (P35372 whole entry): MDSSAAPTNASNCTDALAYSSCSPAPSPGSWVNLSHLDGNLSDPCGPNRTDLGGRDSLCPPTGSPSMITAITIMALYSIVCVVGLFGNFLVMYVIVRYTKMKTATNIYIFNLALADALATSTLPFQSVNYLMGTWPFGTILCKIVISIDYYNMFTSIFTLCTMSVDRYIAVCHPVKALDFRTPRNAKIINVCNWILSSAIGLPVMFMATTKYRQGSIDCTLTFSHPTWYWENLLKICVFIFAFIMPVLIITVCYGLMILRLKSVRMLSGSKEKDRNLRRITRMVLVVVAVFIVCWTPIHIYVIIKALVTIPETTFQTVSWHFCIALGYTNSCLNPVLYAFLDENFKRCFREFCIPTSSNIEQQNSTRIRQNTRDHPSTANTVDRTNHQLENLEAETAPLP
Chain of Delta-type opioid receptor (P41143 whole entry): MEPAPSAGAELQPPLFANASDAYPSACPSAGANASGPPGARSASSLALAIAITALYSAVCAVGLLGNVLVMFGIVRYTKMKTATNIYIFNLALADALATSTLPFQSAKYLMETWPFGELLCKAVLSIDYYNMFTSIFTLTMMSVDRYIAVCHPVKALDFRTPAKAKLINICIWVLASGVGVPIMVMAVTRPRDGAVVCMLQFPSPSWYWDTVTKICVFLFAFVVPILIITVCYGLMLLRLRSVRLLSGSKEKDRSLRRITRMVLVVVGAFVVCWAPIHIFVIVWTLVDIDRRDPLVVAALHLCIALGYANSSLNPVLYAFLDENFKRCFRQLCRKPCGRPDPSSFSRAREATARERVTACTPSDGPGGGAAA
Chain of Kappa-type opioid receptor (P41145 whole entry): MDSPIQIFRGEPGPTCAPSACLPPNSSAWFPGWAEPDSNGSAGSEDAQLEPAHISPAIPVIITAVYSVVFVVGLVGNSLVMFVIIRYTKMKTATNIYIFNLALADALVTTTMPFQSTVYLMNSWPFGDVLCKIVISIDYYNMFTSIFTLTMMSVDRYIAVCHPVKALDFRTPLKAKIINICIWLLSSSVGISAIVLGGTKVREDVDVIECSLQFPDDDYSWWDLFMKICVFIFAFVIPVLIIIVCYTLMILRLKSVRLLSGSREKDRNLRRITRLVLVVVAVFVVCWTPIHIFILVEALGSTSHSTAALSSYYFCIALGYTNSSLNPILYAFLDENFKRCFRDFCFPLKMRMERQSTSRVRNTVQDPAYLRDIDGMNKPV

Molecule | MIC (Trichomonas vaginalis) [µM] | Ki ([1]; read-out: Ki) [nM] | Ki (Mu-type opioid receptor; read-out: Ki) [nM] | Ki ([2]; read-out: Ki) [nM] | IC50 (Trichomonas vaginalis) [nM] | further results
CN1CC[C@]23Cc4nc5ccccc5cc4C[C@@]2(O)[C@H]1Cc1ccc(O)cc13 | 80 (≈ 29.8 µg/mL) |  |  |  |  | 
O=C1/C(=C/c2ccc(F)cc2)C[C@@]2(O)[C@H]3Cc4ccc(O)c5c4[C@@]2(CCN3CC2CC2)[C@H]1O5 | 20 (≈ 8.95 µg/mL) | 34.5 | 20.9 | 108 | 12800 | 
COc1ccc(/C=C2\C[C@@]3(O)[C@H]4Cc5ccc(O)c6c5[C@@]3(CCN4CC3CC3)[C@@H](O6)C2=O)cc1 | 20 (≈ 9.19 µg/mL) | 1.8 | 5.16 | 27.8 | 14100 | 
CC1(C)SSC(C)(C)[C@H](NC(=O)[C@@H](N)Cc2ccc(O)cc2)C(=O)NCC(=O)N[C@@H](Cc2ccccc2)C(=O)N[C@@H]1C(=O)O | > 320 |  |  |  |  | 
CN(C)c1ccc(/C=C2\C[C@@]3(O)[C@H]4Cc5ccc(O)c6c5[C@@]3(CCN4CC3CC3)[C@@H](O6)C2=O)cc1 | 20 (≈ 9.45 µg/mL) | 3.72 | 17.2 | 28.6 | 13200 | 
O=C1C(Cc2ccccc2)C[C@@]2(O)[C@H]3Cc4ccc(O)c5c4[C@@]2(CCN3CC2CC2)[C@H]1O5 (some centres not stated) | 80 (≈ 34.5 µg/mL) |  |  |  |  | 
O=C1/C(=C/c2ccc(C(F)(F)F)cc2)C[C@@]2(O)[C@H]3Cc4ccc(O)c5c4[C@@]2(CCN3CC2CC2)[C@H]1O5 | 20 (≈ 9.95 µg/mL) | 83.9 | 192 | 176 | 13700 | 
O=C1/C(=C/c2ccccc2Cl)C[C@@]2(O)[C@H]3Cc4ccc(O)c5c4[C@@]2(CCN3CC2CC2)[C@H]1O5 | > 320 |  |  |  |  | 
O=C1/C(=C/c2cccs2)C[C@@]2(O)[C@H]3Cc4ccc(O)c5c4[C@@]2(CCN3CC2CC2)[C@H]1O5 | 40 (≈ 17.4 µg/mL) |  |  |  | 21600 | 
O=C1C(Cc2ccc(F)cc2)C[C@@]2(O)[C@H]3Cc4ccc(O)c5c4[C@@]2(CCN3CC2CC2)[C@H]1O5 (some centres not stated) | > 320 |  |  |  |  | 
COc1ccc(/C=C2\C[C@@]3(O)[C@H]4Cc5ccc(OC)c6c5[C@@]3(CCN4CC3CC3)[C@@H](O6)C2=O)cc1 | 80 (≈ 37.9 µg/mL) |  |  |  |  | 
O=C1/C(=C/c2ccc(Cl)cc2)C[C@@]2(O)[C@H]3Cc4ccc(O)c5c4[C@@]2(CCN3CC2CC2)[C@H]1O5 | 20 (≈ 9.28 µg/mL) | 8.22 | 6.13 | 78.6 | 12700 | 
O=C1/C(=C/c2ccc(Br)cc2)C[C@@]2(O)[C@H]3Cc4ccc(O)c5c4[C@@]2(CCN3CC2CC2)[C@H]1O5 | 20 (≈ 10.2 µg/mL) | 4.19 | 5.04 | 70.4 | 11200 | 
O=C1/C(=C/c2ccccc2Br)C[C@@]2(O)[C@H]3Cc4ccc(O)c5c4[C@@]2(CCN3CC2CC2)[C@H]1O5 | 80 (≈ 40.7 µg/mL) |  |  |  |  | 
O=C1/C(=C/c2cccc(C(F)(F)F)c2)C[C@@]2(O)[C@H]3Cc4ccc(O)c5c4[C@@]2(CCN3CC2CC2)[C@H]1O5 | 80 (≈ 39.8 µg/mL) |  |  |  |  | 
O=C1/C(=C/c2ccccc2C(F)(F)F)C[C@@]2(O)[C@H]3Cc4ccc(O)c5c4[C@@]2(CCN3CC2CC2)[C@H]1O5 | 80 (≈ 39.8 µg/mL) |  |  |  |  | 
O=C1/C(=C/c2cccc(F)c2)C[C@@]2(O)[C@H]3Cc4ccc(O)c5c4[C@@]2(CCN3CC2CC2)[C@H]1O5 | 20 (≈ 8.95 µg/mL) | 8.37 | 10.7 | 49 | 14200 | 
COc1ccc2c3c1O[C@H]1C(=O)/C(=C/c4ccc(F)cc4)C[C@@]4(O)[C@@H](C2)N(CC2CC2)CC[C@]314 | 80 (≈ 36.9 µg/mL) |  |  |  |  | 
O=C1/C(=C/c2c(Cl)cccc2Cl)C[C@@]2(O)[C@H]3Cc4ccc(O)c5c4[C@@]2(CCN3CC2CC2)[C@H]1O5 | > 320 |  |  |  |  | 
COc1cccc(/C=C2\C[C@@]3(O)[C@H]4Cc5ccc(O)c6c5[C@@]3(CCN4CC3CC3)[C@@H](O6)C2=O)c1 | 80 (≈ 36.8 µg/mL) |  |  |  |  | 

Molecule | MIC (Trichomonas vaginalis) [µM] | Ki ([1]; read-out: Ki) [nM] | Ki (Mu-type opioid receptor; read-out: Ki) [nM] | Ki ([2]; read-out: Ki) [nM] | IC50 (Trichomonas vaginalis) [nM] | further results
N#Cc1ccc(/C=C2\C[C@@]3(O)[C@H]4Cc5ccc(O)c6c5[C@@]3(CCN4CC3CC3)[C@@H](O6)C2=O)cc1 | 20 (≈ 9.09 µg/mL) | 18.1 | 32.7 | 209 | 13200 | 
COc1ccccc1/C=C1\C[C@@]2(O)[C@H]3Cc4ccc(O)c5c4[C@@]2(CCN3CC2CC2)[C@@H](O5)C1=O | > 320 |  |  |  |  | 
COc1ccc(CC2C[C@@]3(O)[C@H]4Cc5ccc(O)c6c5[C@@]3(CCN4CC3CC3)[C@@H](O6)C2=O)cc1 (some centres not stated) | > 320 |  |  |  |  | 
COc1ccc2c3c1O[C@H]1C(=O)/C(=C/c4ccccc4)C[C@@]4(O)[C@@H](C2)N(CC2CC2)CC[C@]314 | 80 (≈ 35.5 µg/mL) | 100 | 499 | > 1000 |  | 
O=C1/C(=C/c2ccc(I)cc2)C[C@@]2(O)[C@H]3Cc4ccc(O)c5c4[C@@]2(CCN3CC2CC2)[C@H]1O5 | 20 (≈ 11.1 µg/mL) | 2.15 | 19.9 | 126 | 10500 | MIC [3]: > 320 µM
O=C1/C(=C/c2ccco2)C[C@@]2(O)[C@H]3Cc4ccc(O)c5c4[C@@]2(CCN3CC2CC2)[C@H]1O5 | 160 (≈ 67.1 µg/mL) |  |  |  |  | 
N#Cc1cccc(/C=C2\C[C@@]3(O)[C@H]4Cc5ccc(O)c6c5[C@@]3(CCN4CC3CC3)[C@@H](O6)C2=O)c1 | 40 (≈ 18.2 µg/mL) |  |  |  | 18000 | 
COc1ccc2c3c1O[C@H]1C(=O)C(Cc4ccccc4)C[C@@]4(O)[C@@H](C2)N(CC2CC2)CC[C@]314 (some centres not stated) | > 320 |  |  |  |  | 
O=C1/C(=C/c2ccnc3ccccc23)C[C@@]2(O)[C@H]3Cc4ccc(O)c5c4[C@@]2(CCN3CC2CC2)[C@H]1O5 | 40 (≈ 19.2 µg/mL) |  |  |  | 17200 | 
O=C1/C(=C/c2ccccc2F)C[C@@]2(O)[C@H]3Cc4ccc(O)c5c4[C@@]2(CCN3CC2CC2)[C@H]1O5 | 20 (≈ 8.95 µg/mL) | 2.94 | 12.8 | 35.1 | 18600 | 
COC(=O)/C=C/C(=O)N[C@@H]1CC[C@@]2(O)[C@H]3Cc4ccc(O)c5c4[C@@]2(CCN3CC2CC2)[C@H]1O5 | 80 (≈ 36.4 µg/mL) |  |  |  |  | 
O=C1/C(=C/c2ccccc2)C[C@@]2(O)[C@H]3Cc4ccc(O)c5c4[C@@]2(CCN3CC2CC2)[C@H]1O5 [BNTX] | 40 (≈ 17.2 µg/mL) | 2.81 | 11 | 32.8 | 21700 | MIC [3]: > 320 µM
Cc1ncc([N+](=O)[O-])n1CCO [METRONIDAZOLE] | 10 (≈ 1.71 µg/mL) |  |  |  | 5200 | Ki [1]: Not Active; Ki (Mu-type opioid receptor): Not Active; Ki [2]: Not Active; MIC [3]: 2.5 µM (≈ 0.428 µg/mL)
CN(C(=O)/C=C/c1ccoc1)[C@@H]1CC[C@@]2(O)[C@H]3Cc4ccc(O)c5c4[C@@]2(CCN3CC2CC2)[C@H]1O5 [NALFURAFINE] | 80 (≈ 38.1 µg/mL) |  |  |  |  | 
O=C1CC[C@@]2(O)[C@H]3Cc4ccc(O)c5c4[C@@]2(CCN3CC2CC2)[C@H]1O5 [NALTREXONE] | 80 (≈ 27.3 µg/mL) |  |  |  |  | 
Oc1ccc2c3c1O[C@H]1c4oc5ccccc5c4C[C@@]4(O)[C@@H](C2)N(CC2CC2)CC[C@]314 [NALTRIBEN] | 80 (≈ 33.2 µg/mL) |  |  |  |  | 
Oc1ccc2c3c1O[C@H]1c4[nH]c5ccccc5c4C[C@@]4(O)[C@@H](C2)N(CC2CC2)CC[C@]314 [NALTRINDOLE] | 80 (≈ 33.2 µg/mL) |  |  |  |  | 
Oc1ccc2c3c1O[C@H]1c4[nH]c5c(c4C[C@@]4(O)[C@@H](C2)N(CC2CC2)CC[C@]314)C[C@@]1(O)[C@H]2Cc3ccc(O)c4c3[C@@]1(CCN2CC1CC1)[C@H]5O4 [NORBINALTORPHIMINE] | > 320 |  |  |  |  | 
C=CCN1C[C@H](C)N([C@H](c2ccc(C(=O)N(CC)CC)cc2)c2cccc(OC)c2)C[C@H]1C [SNC-80] | > 320 |  |  |  |  | 
H-AFEVVG-NH2 | > 320 |  |  |  |  | 
